≈ marks a conversion by molar mass, not a printed value. Calls of active or inactive are those of the source. No cut-off for these calls is given here.
Assays:
[1] = system: Staphylococcus aureus; assay: Antibacterial activity against Staphylococcus aureus ATCC 6538 assessed as diameter of inhibition zone at 125 mg/ml by agar well diffusion method; format: functional; conditions: read-out: DIZ
[2] = Antioxidant activity assessed as DPPH free radical scavenging activity at 0.5 mg/ml incubated for 20 mins in dark (reference value: 1 to 9 %); format: functional
[3] = Antioxidant activity assessed as ABTS radical scavenging activity at 0.5 mg/ml incubated for 2 hrs in dark by spectrophotometric analysis (reference value: 1 to 9 %); format: functional
[4] = system: Salmonella enteritidis; assay: Antibacterial activity against Salmonella enterica serotype Enteritidis ATCC 43972 after 24 hrs by MTT dye based microdilution method; format: functional, Salmonella enterica subsp. enterica serovar Enteritidis; conditions: ATCC 43972, 24 h
[5] = Antioxidant activity assessed as DPPH free radical scavenging activity incubated for 20 mins in dark; format: functional
[6] = system: Listeria monocytogenes; assay: Antibacterial activity against Listeria monocytogenes assessed as diameter of inhibition zone at 125 mg/ml by agar well diffusion method; format: functional; conditions: read-out: DIZ
[7] = Antioxidant activity assessed as reduction in beta-carotene/linoleic acid bleaching activity at 2 mg/ml after 2 hrs by spectrophotometric method (reference value: 1 to 8%); format: functional; design: scale not given: the % may be the effect or the level left
[8] = Antioxidant activity assessed as reduction in beta-carotene/linoleic acid bleaching activity after 2 hrs by spectrophotometric method; format: functional
[9] = system: Bacillus cereus; assay: Antibacterial activity against Bacillus cereus JN934390 after 24 hrs by MTT dye based microdilution method; format: functional; conditions: JN934390, 24 h
[10] = system: Bacillus subtilis; assay: Antibacterial activity against Bacillus subtilis JN934392 assessed as diameter of inhibition zone at 125 mg/ml by agar well diffusion method; format: functional; conditions: read-out: DIZ
[11] = Antioxidant activity assessed as DPPH free radical scavenging activity at 1 mg/ml incubated for 20 mins in dark (reference value: 1 to 9%); format: functional
[12] = system: Staphylococcus aureus; assay: Bactericidal activity against Staphylococcus aureus ATCC 6538 after 48 hrs by MTT dye based microdilution method; format: functional; conditions: ATCC 6538, 48 h
[13] = Antioxidant activity assessed as ABTS radical scavenging activity at 2 mg/ml incubated for 2 hrs in dark by spectrophotometric analysis (reference value: 1 to 9%); format: functional
[14] = Antioxidant activity assessed as DPPH free radical scavenging activity at 3 mg/ml incubated for 20 mins in dark (reference value: 1 to 9%); format: functional
[15] = system: Micrococcus luteus; assay: Antibacterial activity against Micrococcus luteus assessed as diameter of inhibition zone at 125 mg/ml by agar well diffusion method; format: functional; conditions: read-out: DIZ
[16] = system: Salmonella enteritidis; assay: Bactericidal activity against Salmonella enterica serotype Enteritidis ATCC 43972 after 48 hrs by MTT dye based microdilution method; format: functional, Salmonella enterica subsp. enterica serovar Enteritidis; conditions: ATCC 43972, 48 h
[17] = system: Salmonella enteritidis; assay: Antibacterial activity against Salmonella enterica serotype Enteritidis ATCC 43972 assessed as diameter of inhibition zone at 125 mg/ml by agar well diffusion method; format: functional, Salmonella enterica subsp. enterica serovar Enteritidis; conditions: read-out: DIZ
[18] = system: Klebsiella pneumoniae; assay: Antibacterial activity against Klebsiella pneumoniae after 24 hrs by MTT dye based microdilution method; format: functional
[19] = Antioxidant activity assessed as reduction in beta-carotene/linoleic acid bleaching activity at 3 mg/ml after 2 hrs by spectrophotometric method (reference value: 1 to 8%); format: functional; design: scale not given: the % may be the effect or the level left
[20] = system: Bacillus subtilis; assay: Antibacterial activity against Bacillus subtilis JN934392 after 24 hrs by MTT dye based microdilution method; format: functional; conditions: JN934392, 24 h
[21] = Antioxidant activity assessed as reduction in beta-carotene/linoleic acid bleaching activity at 1 mg/ml after 2 hrs by spectrophotometric method (reference value: 1 to 8%); format: functional; design: scale not given: the % may be the effect or the level left
[22] = Antioxidant activity assessed as DPPH free radical scavenging activity at 2.5 mg/ml incubated for 20 mins in dark (reference value: 1 to 9%); format: functional
[23] = system: Listeria monocytogenes; assay: Antibacterial activity against Listeria monocytogenes after 24 hrs by MTT dye based microdilution method; format: functional
[24] = Antioxidant activity assessed as ABTS radical scavenging activity at 1 mg/ml incubated for 2 hrs in dark by spectrophotometric analysis (reference value: 1 to 9%); format: functional
[25] = system: Micrococcus luteus; assay: Antibacterial activity against Micrococcus luteus after 24 hrs by MTT dye based microdilution method; format: functional
[26] = Antioxidant activity assessed as reduction in beta-carotene/linoleic acid bleaching activity at 2.5 mg/ml after 2 hrs by spectrophotometric method (reference value: 1 to 8%); format: functional; design: scale not given: the % may be the effect or the level left
[27] = Antioxidant activity assessed as ABTS radical scavenging activity at 3 mg/ml incubated for 2 hrs in dark by spectrophotometric analysis (reference value: 1 to 9%); format: functional
[28] = Antioxidant activity assessed as reduction in beta-carotene/linoleic acid bleaching activity at 0.5 mg/ml after 2 hrs by spectrophotometric method (reference value: 1 to 8 %); format: functional; design: scale not given: the % may be the effect or the level left
[29] = Antioxidant activity assessed as ABTS radical scavenging activity incubated for 2 hrs in dark by spectrophotometric analysis; format: functional
[30] = Antioxidant activity assessed as ABTS radical scavenging activity at 2.5 mg/ml incubated for 2 hrs in dark by spectrophotometric analysis (reference value: 1 to 9%); format: functional
[31] = system: Staphylococcus aureus; assay: Antibacterial activity against Staphylococcus aureus ATCC 6538 after 24 hrs by MTT dye based microdilution method; format: functional; conditions: ATCC 6538, 24 h
[32] = system: Escherichia coli; assay: Antibacterial activity against Escherichia coli ATCC 25922 assessed as diameter of inhibition zone at 125 mg/ml by agar well diffusion method; format: functional
[33] = system: Bacillus cereus; assay: Bactericidal activity against Bacillus cereus JN934390 after 48 hrs by MTT dye based microdilution method; format: functional; conditions: JN934390, 48 h
[34] = Antioxidant activity assessed as DPPH free radical scavenging activity at 2 mg/ml incubated for 20 mins in dark (reference value: 1 to 9%); format: functional
[35] = system: Bacillus subtilis; assay: Bactericidal activity against Bacillus subtilis JN934392 after 48 hrs by MTT dye based microdilution method; format: functional; conditions: JN934392, 48 h
[36] = system: Bacillus cereus; assay: Antibacterial activity against Bacillus cereus JN934390 assessed as diameter of inhibition zone at 125 mg/ml by agar well diffusion method; format: functional; conditions: read-out: DIZ
[37] = system: Klebsiella pneumoniae; assay: Antibacterial activity against Klebsiella pneumoniae assessed as diameter of inhibition zone at 125 mg/ml by agar well diffusion method; format: functional; conditions: read-out: DIZ
[38] = system: Listeria monocytogenes; assay: Potency index, ratio of compound DIZ to chloramphenicol DIZ for Listeria monocytogenes; format: functional
[39] = system: Micrococcus luteus; assay: Bactericidal activity against Micrococcus luteus after 48 hrs by MTT dye based microdilution method; format: functional
[40] = system: Listeria monocytogenes; assay: Bactericidal activity against Listeria monocytogenes after 48 hrs by MTT dye based microdilution method; format: functional
[41] = system: Klebsiella pneumoniae; assay: Bactericidal activity against Klebsiella pneumoniae after 48 hrs by MTT dye based microdilution method; format: functional
[42] = system: Staphylococcus aureus; assay: Antibacterial activity against Staphylococcus aureus ATCC 6538 assessed as diameter of inhibition zone at 15 microg/well by agar well diffusion method; format: functional; conditions: read-out: DIZ
[43] = system: Escherichia coli; assay: Antibacterial activity against Escherichia coli ATCC 25922 assessed as diameter of inhibition zone at 15 microg/well by agar well diffusion method; format: functional; conditions: read-out: DIZ
[44] = system: Bacillus subtilis; assay: Antibacterial activity against Bacillus subtilis JN934392 assessed as diameter of inhibition zone at 15 microg/well by agar well diffusion method; format: functional; conditions: read-out: DIZ
[45] = system: Bacillus cereus; assay: Antibacterial activity against Bacillus cereus JN934390 assessed as diameter of inhibition zone at 15 microg/well by agar well diffusion method; format: functional; conditions: read-out: DIZ
[46] = system: Salmonella enteritidis; assay: Antibacterial activity against Salmonella enterica serotype Enteritidis ATCC 43972 assessed as diameter of inhibition zone at 15 microg/well by agar well diffusion method; format: functional, Salmonella enterica subsp. enterica serovar Enteritidis; conditions: read-out: DIZ
[47] = system: Micrococcus luteus; assay: Antibacterial activity against Micrococcus luteus assessed as diameter of inhibition zone at 15 microg/well by agar well diffusion method; format: functional; conditions: read-out: DIZ
[48] = system: Listeria monocytogenes; assay: Antibacterial activity against Listeria monocytogenes assessed as diameter of inhibition zone at 15 microg/well by agar well diffusion method; format: functional; conditions: read-out: DIZ
[49] = system: Klebsiella pneumoniae; assay: Antibacterial activity against Klebsiella pneumoniae assessed as diameter of inhibition zone at 15 microg/well by agar well diffusion method; format: functional; conditions: read-out: DIZ

## COc1ccc(N2C(=O)[C@H]3[C@H](ON4[C@@H]3C(=O)N(C)[C@@]43C[C@H](C)CC[C@H]3C(C)C)C2=O)cc1
[1]
  zone of inhibition at 125000 µg/mL: 9.66 mm
[2]
  Activity: 32.9%
[3]
  Activity: 48.9%
[4]
  MIC: 3120 µg/mL (≈ 7.07 mM)
[5]
  Activity: Dose-dependent effect
  IC50: 1.12 mg/mL (≈ 2.54 mM)
[6]
  zone of inhibition at 125000 µg/mL: 11 mm
[7]
  Activity: 55.7%
[8]
  IC50: 0.99 mg/mL (≈ 2.24 mM)
[9]
  MIC: 6250 µg/mL (≈ 14.2 mM)
[10]
  zone of inhibition at 125000 µg/mL: 11.3 mm
[11]
  Activity: 48.1%
[12]
  MBC: 50 mg/mL (≈ 113 mM)
[13]
  Activity: 68.9%
[14]
  Activity: 68.2%
[15]
  zone of inhibition at 125000 µg/mL: 10 mm
[16]
  MBC: 50 mg/mL (≈ 113 mM)
[17]
  zone of inhibition at 125000 µg/mL: 15 mm
[18]
  MIC: 12500 µg/mL (≈ 28.3 mM)
[19]
  Activity: 67.7%
[20]
  MIC: 6250 µg/mL (≈ 14.2 mM)
[21]
  Activity: 50%
[22]
  Activity: 65.3%
[23]
  MIC: 12500 µg/mL (≈ 28.3 mM)
[24]
  Activity: 61%
[25]
  MIC: 12500 µg/mL (≈ 28.3 mM)
[26]
  Activity: 59.3%
[27]
  Activity: 75.1%
[28]
  Activity: 44.5%
[29]
  IC50: 0.48 mg/mL (≈ 1.09 mM)
[30]
  Activity: 71.5%
[31]
  MIC: 6250 µg/mL (≈ 14.2 mM)
[32]
  diameter of the inhibition zone (DIZ): inactive
[33]
  MBC: 50 mg/mL (≈ 113 mM)
[34]
  Activity: 61.7%
[35]
  MBC: 50 mg/mL (≈ 113 mM)
[36]
  zone of inhibition at 125000 µg/mL: 12.7 mm
[37]
  zone of inhibition at 125000 µg/mL: 9 mm

## Cc1ccc(N2C(=O)[C@H]3[C@H](ON4[C@@H]3C(=O)N(C)[C@@]43C[C@H](C)CC[C@H]3C(C)C)C2=O)c(C)c1
[1]
  zone of inhibition at 125000 µg/mL: 22 mm
[2]
  Activity: 49.9%
[3]
  Activity: 52.9%
[4]
  MIC: 3120 µg/mL (≈ 7.1 mM)
[38]
  Ratio: 2
[5]
  Activity: Dose-dependent effect
  IC50: 0.5 mg/mL (≈ 1.14 mM)
[6]
  zone of inhibition at 125000 µg/mL: 24.7 mm
[7]
  Activity: 57%
[8]
  IC50: 0.43 mg/mL (≈ 0.978 mM)
[9]
  MIC: 3120 µg/mL (≈ 7.1 mM)
[10]
  zone of inhibition at 125000 µg/mL: 20.7 mm
[11]
  Activity: 57%
[12]
  MBC: 12.5 mg/mL (≈ 28.4 mM)
[13]
  Activity: 79.4%
[39]
  MBC: 50 mg/mL (≈ 114 mM)
[14]
  Activity: 73.2 to 89.3%
[15]
  zone of inhibition at 125000 µg/mL: 9.66 mm
[16]
  MBC: 12.5 mg/mL (≈ 28.4 mM)
[17]
  zone of inhibition at 125000 µg/mL: 20.3 mm
[18]
  MIC: 3120 µg/mL (≈ 7.1 mM)
[19]
  Activity: 71.3%
[20]
  MIC: 3120 µg/mL (≈ 7.1 mM)
[21]
  Activity: 53.1%
[40]
  MBC: 3120 µg/mL (≈ 7.1 mM)
[22]
  Activity: 77.1%
[23]
  MIC: 1560 µg/mL (≈ 3.55 mM)
[24]
  Activity: 69%
[25]
  MIC: 6250 µg/mL (≈ 14.2 mM)
[26]
  Activity: 65.6%
[27]
  Activity: 85.8%
[28]
  Activity: 51%
[29]
  IC50: 0.42 mg/mL (≈ 0.956 mM)
[41]
  MBC: 6250 µg/mL (≈ 14.2 mM)
[30]
  Activity: 82.6%
[31]
  MIC: 6250 µg/mL (≈ 14.2 mM)
[32]
  diameter of the inhibition zone (DIZ): inactive
[33]
  MBC: 25 mg/mL (≈ 56.9 mM)
[34]
  Activity: 72%
[35]
  MBC: 12.5 mg/mL (≈ 28.4 mM)
[36]
  zone of inhibition at 125000 µg/mL: 21.7 mm
[37]
  zone of inhibition at 125000 µg/mL: 23 mm

## O=C(N[C@H](CO)[C@H](O)c1ccc([N+](=O)[O-])cc1)C(Cl)Cl [CHLORAMPHENICOL]
[42]
  zone of inhibition at 15 µg/disc: 17 mm
[43]
  zone of inhibition at 15 µg/disc: 23.5 mm
[44]
  zone of inhibition at 15 µg/disc: 24 mm
[45]
  zone of inhibition at 15 µg/disc: 26 mm
[46]
  zone of inhibition at 15 µg/disc: 16 mm
[47]
  zone of inhibition at 15 µg/disc: 20 mm
[48]
  zone of inhibition at 15 µg/disc: 12 mm
[49]
  zone of inhibition at 15 µg/disc: 22 mm
